This series relates to human PKK mRNA. Description: Antisense inhibition of human PKK mRNA in HepaRG cells, 5,000 nM (Example 2). The series is classed as cell-based. Particulars: approx. 24 hours. In a few lines:
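Chimeric MOE gapmers with full phosphorothioate backbones were tested once at 5,000 nM in electroporated HepaRG cells. After about 24 hours, quantitative PCR measured PKK mRNA relative to untreated control cells.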

The mark [1] stands for this setting: Table 9 experiment, HepaRG cells, 20,000 cells per well, electroporation with 5,000 nM antisense oligonucleotide, PKK mRNA by RT-PCR (RTS3454), relative to untreated control cells.
Setting [2] is: Table 10 experiment, HepaRG cells, 20,000 cells per well, electroporation with 5,000 nM antisense oligonucleotide, PKK mRNA by RT-PCR (RTS3454), relative to untreated control cells.
Setting [3] is: HepaRG cells, electroporation, 5,000 nM antisense oligonucleotide, primer probe set RTS3454, relative to untreated control cells, Table 11.

Strand notation (5' to 3'): a small letter for the sugar, then the base; units joined by * are phosphorothioate-linked, units joined directly phosphodiester-linked; [ ] holds rarer units or linkages, { } end groups; capitals alone tell only the bases. e = 2'-O-(2-methoxyethyl) (MOE); [5mC] = 5-methylcytosine; d = 2'-deoxy (DNA)

As usually defined, the % inhibition is the change of the read-out against control, counted positive when it falls.

Take “547472 (antisense eT*e[5mC]*eA*e[5mC]*e[5mC]*dT*dT*dT*d[5mC]*dT*d[5mC]*d[5mC]*dT*dT*d[5mC]*eG*eA*eG*eA*eA) [compound 547472]”: the “% inhibition” value is, setting by setting: under setting [1], 44%; under setting [2], 42%.

Turning to “547473 (antisense eT*eT*eT*eG*eG*dA*dT*dT*dT*d[5mC]*dA*d[5mC]*d[5mC]*dT*dT*eT*e[5mC]*eT*e[5mC]*e[5mC]) [compound 547473]”, the “% inhibition” value turned out to be 5% under setting [1] and 26% under setting [2].

For “547474 (antisense eT*eG*eT*eA*eG*dA*dA*dT*dA*dT*dT*dT*dT*dG*dG*eA*eT*eT*eT*e[5mC]) [compound 547474]”, the “% inhibition” value stood at 51% under setting [1] and 34% under setting [2].

On to “547475 (antisense eT*eT*eT*eG*eT*dT*dA*d[5mC]*d[5mC]*dA*dA*dA*dG*dG*dA*eA*eT*eA*eT*eT) [compound 547475]”, for which the “% inhibition” value runs as follows: under setting [1], 44%; under setting [2], 42%.

Consider “547476 (antisense e[5mC]*eA*eT*eT*eT*dG*dT*dT*dA*d[5mC]*d[5mC]*dA*dA*dA*dG*eG*eA*eA*eT*eA) [compound 547476]”, for which the “% inhibition” value runs as follows: under setting [1], 75%; under setting [2], 71%.

“547477 (antisense eT*e[5mC]*eT*eT*e[5mC]*dA*dT*dT*dT*dG*dT*dT*dA*d[5mC]*d[5mC]*eA*eA*eA*eG*eG) [compound 547477]”: the “% inhibition” value reads like this: under setting [1], 74%; under setting [2], 68%.

For “547478 (antisense e[5mC]*eA*eT*eT*e[5mC]*dT*dT*d[5mC]*dA*dT*dT*dT*dG*dT*dT*eA*e[5mC]*e[5mC]*eA*eA) [compound 547478]”, the “% inhibition” value under setting [1] worked out at 85% and the “% inhibition” value under setting [2] was determined as 55%.

For the substance “547479 (antisense eT*eA*eT*eA*eA*dT*d[5mC]*dT*dT*dG*dA*dT*dA*dT*d[5mC]*eT*eT*eT*eT*e[5mC]) [compound 547479]”, the “% inhibition” value reads like this: under setting [1], 48%; under setting [2], 9%.

Regarding “547480 (antisense eT*eT*e[5mC]*eT*eT*dT*dA*dT*dA*dG*d[5mC]*d[5mC]*dA*dG*d[5mC]*eA*e[5mC]*eA*eG*eA) [compound 547480]”, the “% inhibition” value by setting is: under setting [1], 60%; under setting [2], 49%.

As to “547481 (antisense e[5mC]*e[5mC]*eT*eT*e[5mC]*dT*dT*dT*dA*dT*dA*dG*d[5mC]*d[5mC]*dA*eG*e[5mC]*eA*e[5mC]*eA) [compound 547481]”, the “% inhibition” value by setting is: under setting [1], 71%; under setting [2], 77%.

As to “547482 (antisense e[5mC]*e[5mC]*e[5mC]*e[5mC]*eT*dT*d[5mC]*dT*dT*dT*dA*dT*dA*dG*d[5mC]*e[5mC]*eA*eG*e[5mC]*eA) [compound 547482]”, the “% inhibition” value under setting [1] worked out at 90% and the “% inhibition” value under setting [2] was 65%.

Regarding “547484 (antisense e[5mC]*eT*eA*eA*eG*dG*dG*dA*d[5mC]*d[5mC]*dA*d[5mC]*d[5mC]*dT*dG*eA*eA*eT*e[5mC]*eT) [compound 547484]”, the “% inhibition” value runs as follows: under setting [1], 69%; under setting [2], 64%.

As to “547485 (antisense e[5mC]*eA*eA*eA*e[5mC]*dT*dA*dA*dG*dG*dG*dA*d[5mC]*d[5mC]*dA*e[5mC]*e[5mC]*eT*eG*eA) [compound 547485]”, the “% inhibition” value under setting [1] is recorded as 49% and the “% inhibition” value under setting [2] is recorded as 66%.

Take “547486 (antisense eT*eG*e[5mC]*eA*eA*dA*d[5mC]*dT*dA*dA*dG*dG*dG*dA*d[5mC]*e[5mC]*eA*e[5mC]*e[5mC]*eT) [compound 547486]”: the “% inhibition” value reads like this: under setting [1], 89%; under setting [2], 78%.

“547487 (antisense eT*eG*eT*eG*eT*dT*dT*dG*d[5mC]*dA*dA*dA*d[5mC]*dT*dA*eA*eG*eG*eG*eA) [compound 547487]”: the “% inhibition” value by setting is: under setting [1], 72%; under setting [2], 61%.

In the case of “547488 (antisense eA*e[5mC]*eA*e[5mC]*e[5mC]*dA*dG*dG*dT*dT*dG*d[5mC]*dT*d[5mC]*d[5mC]*e[5mC]*eT*eG*e[5mC]*eG) [compound 547488]”, the “% inhibition” value by setting is: under setting [1], 71%; under setting [2], 72%.

For “547489 (antisense eA*eG*eA*e[5mC]*eA*d[5mC]*d[5mC]*dA*dG*dG*dT*dT*dG*d[5mC]*dT*e[5mC]*e[5mC]*e[5mC]*eT*eG) [compound 547489]”, the “% inhibition” value under setting [3] was 34%.

Regarding “547490 (antisense eG*eT*eA*eG*eA*d[5mC]*dA*d[5mC]*d[5mC]*dA*dG*dG*dT*dT*dG*e[5mC]*eT*e[5mC]*e[5mC]*e[5mC]) [compound 547490]”, the “% inhibition” value under setting [3] turned out to be 55%.

Take “547491 (antisense e[5mC]*eA*eT*eG*eT*dA*d[5mC]*dT*d[5mC]*dA*dG*d[5mC]*dG*dA*d[5mC]*eT*eT*eT*eG*eG) [compound 547491]”: the “% inhibition” value under setting [3] was 47%.

On to “547492 (antisense e[5mC]*eA*eG*eT*e[5mC]*d[5mC]*dA*dT*dG*dT*dA*d[5mC]*dT*d[5mC]*dA*eG*e[5mC]*eG*eA*e[5mC]) [compound 547492]”, for which, under setting [3], the “% inhibition” value was 62%.

For “547494 (antisense eT*eG*eG*eT*eG*dA*d[5mC]*dT*dG*d[5mC]*dA*dT*d[5mC]*dT*dG*eA*eG*e[5mC]*eT*eT) [compound 547494]”, under setting [3], the “% inhibition” value is 70%.

For “547495 (antisense eG*e[5mC]*eT*eG*eG*dT*dG*dA*d[5mC]*dT*dG*d[5mC]*dA*dT*d[5mC]*eT*eG*eA*eG*e[5mC]) [compound 547495]”, under setting [3], the “% inhibition” value is recorded as 61%.

Consider “547496 (antisense eA*eT*eG*e[5mC]*eT*dG*dG*dT*dG*dA*d[5mC]*dT*dG*d[5mC]*dA*eT*e[5mC]*eT*eG*eA) [compound 547496]”, for which the “% inhibition” value under setting [3] stood at 80%.

As to “547497 (antisense eA*e[5mC]*eT*eG*e[5mC]*dT*dT*d[5mC]*dT*d[5mC]*dA*dT*dG*d[5mC]*dT*eG*eG*eT*eG*eA) [compound 547497]”, the “% inhibition” value under setting [3] amounted to 68%.

For the substance “547498 (antisense e[5mC]*eT*eG*eG*eA*d[5mC]*dT*dG*d[5mC]*dT*dT*d[5mC]*dT*d[5mC]*dA*eT*eG*e[5mC]*eT*eG) [compound 547498]”, the “% inhibition” value under setting [3] amounted to 44%.

As for “547499 (antisense e[5mC]*eT*e[5mC]*eT*eG*dG*dA*d[5mC]*dT*dG*d[5mC]*dT*dT*d[5mC]*dT*e[5mC]*eA*eT*eG*e[5mC]) [compound 547499]”, under setting [3], the “% inhibition” value came out at 65%.

Regarding “547500 (antisense e[5mC]*e[5mC]*eT*eA*eG*dA*d[5mC]*dT*d[5mC]*dT*dG*dG*dA*d[5mC]*dT*eG*e[5mC]*eT*eT*e[5mC]) [compound 547500]”, the “% inhibition” value under setting [3] was 65%.

“547501 (antisense eA*eT*eT*eG*e[5mC]*d[5mC]*dT*dA*dG*dA*d[5mC]*dT*d[5mC]*dT*dG*eG*eA*e[5mC]*eT*eG) [compound 547501]”: the “% inhibition” value under setting [3] was 55%.

Take “547502 (antisense eT*e[5mC]*eA*eG*eG*dT*dT*dG*dT*dA*dA*dA*dA*dA*dT*eT*eG*e[5mC]*e[5mC]*eT) [compound 547502]”: the “% inhibition” value under setting [3] was found to be 64%.

In the case of “547503 (antisense eA*e[5mC]*eT*e[5mC]*eA*dG*dG*dT*dT*dG*dT*dA*dA*dA*dA*eA*eT*eT*eG*e[5mC]) [compound 547503]”, the “% inhibition” value under setting [3] is listed as 66%.

As to “547504 (antisense eG*eA*eA*e[5mC]*eT*d[5mC]*dA*dG*dG*dT*dT*dG*dT*dA*dA*eA*eA*eA*eT*eT) [compound 547504]”, under setting [3], the “% inhibition” value is recorded as 37%.

In the case of “547505 (antisense eG*eA*e[5mC]*eT*eT*dG*dA*dA*d[5mC]*dT*d[5mC]*dA*dG*dG*dT*eT*eG*eT*eA*eA) [compound 547505]”, under setting [3], the “% inhibition” value was determined as 69%.

Consider “547506 (antisense eA*eG*eG*e[5mC]*eT*d[5mC]*dA*dG*dA*dA*dT*dT*dT*dG*dA*e[5mC]*eT*eT*eG*eA) [compound 547506]”, for which the “% inhibition” value under setting [3] is reported as 78%.

With “547507 (antisense e[5mC]*eA*eG*eG*e[5mC]*dT*d[5mC]*dA*dG*dA*dA*dT*dT*dT*dG*eA*e[5mC]*eT*eT*eG) [compound 547507]”, the “% inhibition” value under setting [3] came to 56%.

In the case of “547508 (antisense e[5mC]*e[5mC]*e[5mC]*e[5mC]*eA*dG*dG*d[5mC]*dT*d[5mC]*dA*dG*dA*dA*dT*eT*eT*eG*eA*e[5mC]) [compound 547508]”, the “% inhibition” value under setting [3] is recorded as 69%.

Consider “547509 (antisense e[5mC]*e[5mC]*e[5mC]*e[5mC]*e[5mC]*d[5mC]*dA*dG*dG*d[5mC]*dT*d[5mC]*dA*dG*dA*eA*eT*eT*eT*eG) [compound 547509]”, for which the “% inhibition” value under setting [3] was found to be 58%.

On to “547510 (antisense eA*eT*eG*eA*eG*dG*dA*d[5mC]*d[5mC]*d[5mC]*d[5mC]*d[5mC]*d[5mC]*dA*dG*eG*e[5mC]*eT*e[5mC]*eA) [compound 547510]”, for which the “% inhibition” value under setting [3] stood at 40%.

As to “547511 (antisense eG*eA*eT*eG*eA*dG*dG*dA*d[5mC]*d[5mC]*d[5mC]*d[5mC]*d[5mC]*d[5mC]*dA*eG*eG*e[5mC]*eT*e[5mC]) [compound 547511]”, under setting [3], the “% inhibition” value is given as 53%.

As for “547512 (antisense eG*e[5mC]*eA*eG*eA*dT*dG*dA*dG*dG*dA*d[5mC]*d[5mC]*d[5mC]*d[5mC]*e[5mC]*e[5mC]*eA*eG*eG) [compound 547512]”, the “% inhibition” value under setting [3] is 74%.

Take “547513 (antisense eT*eG*e[5mC]*eA*eG*dA*dT*dG*dA*dG*dG*dA*d[5mC]*d[5mC]*d[5mC]*e[5mC]*e[5mC]*e[5mC]*eA*eG) [compound 547513]”: under setting [3], the “% inhibition” value was determined as 72%.

With “547515 (antisense eA*eG*eA*eA*eG*dA*dT*dG*d[5mC]*d[5mC]*dA*d[5mC]*dT*d[5mC]*dT*e[5mC]*e[5mC]*eA*eT*eG) [compound 547515]”, under setting [3], the “% inhibition” value came to 58%.

For the origin of these results see patent US11840686B2, “Modulation of prekallikrein (PKK) expression” (Ionis Pharmaceuticals, Inc., priority 2013, dated 2023).
